# Measured values: patent US9296725B2, “Heterocyclyl pyrimidine analogues as TYK2 inhibitors” (Cellzome Limited, priority 2012, dated 2016)
# Columns and labels:
# [1] = biological target: T1, TYK2 (Homo sapiens, UniProt P29597); assay: Kinobeads assay, TYK2 (competition binding in mixed Molt4/Ramos cell lysate, dot blot detection); conditions: Kinobeads assay, Molt4/Ramos lysate; read-out: TYK2 Band (Kinobeads assay potency, IC50)
# T1 construct: endogenous in cells; host or cells: Molt4 (ATCC CRL-1582) and Ramos (ATCC CRL-1596), mixed lysate 1:2
# In short: (§1)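 JAK2 and TYK2 retained on Kinobeads (immobilized aminopyrido-pyrimidine ligand) from 1:2 Molt4:Ramos lysate (10 mg/mL) were quantified by antibody dot blot (Odyssey infrared) after 3 h cold incubation with compound. Nine-step 1:3 dilution series; IC50 calculated from curves.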
# [2] = biological target: T2, JAK2 (Homo sapiens, UniProt O60674); assay: Kinobeads assay, JAK2 (competition binding in mixed Molt4/Ramos cell lysate, dot blot detection); conditions: read-out: JAK2 Band (Kinobeads assay potency, IC50)
# T2 construct: endogenous in cells; host or cells: Molt4 (ATCC CRL-1582) and Ramos (ATCC CRL-1596), mixed lysate 1:2
# In short: as §1
# T1 sequence (P29597 whole entry): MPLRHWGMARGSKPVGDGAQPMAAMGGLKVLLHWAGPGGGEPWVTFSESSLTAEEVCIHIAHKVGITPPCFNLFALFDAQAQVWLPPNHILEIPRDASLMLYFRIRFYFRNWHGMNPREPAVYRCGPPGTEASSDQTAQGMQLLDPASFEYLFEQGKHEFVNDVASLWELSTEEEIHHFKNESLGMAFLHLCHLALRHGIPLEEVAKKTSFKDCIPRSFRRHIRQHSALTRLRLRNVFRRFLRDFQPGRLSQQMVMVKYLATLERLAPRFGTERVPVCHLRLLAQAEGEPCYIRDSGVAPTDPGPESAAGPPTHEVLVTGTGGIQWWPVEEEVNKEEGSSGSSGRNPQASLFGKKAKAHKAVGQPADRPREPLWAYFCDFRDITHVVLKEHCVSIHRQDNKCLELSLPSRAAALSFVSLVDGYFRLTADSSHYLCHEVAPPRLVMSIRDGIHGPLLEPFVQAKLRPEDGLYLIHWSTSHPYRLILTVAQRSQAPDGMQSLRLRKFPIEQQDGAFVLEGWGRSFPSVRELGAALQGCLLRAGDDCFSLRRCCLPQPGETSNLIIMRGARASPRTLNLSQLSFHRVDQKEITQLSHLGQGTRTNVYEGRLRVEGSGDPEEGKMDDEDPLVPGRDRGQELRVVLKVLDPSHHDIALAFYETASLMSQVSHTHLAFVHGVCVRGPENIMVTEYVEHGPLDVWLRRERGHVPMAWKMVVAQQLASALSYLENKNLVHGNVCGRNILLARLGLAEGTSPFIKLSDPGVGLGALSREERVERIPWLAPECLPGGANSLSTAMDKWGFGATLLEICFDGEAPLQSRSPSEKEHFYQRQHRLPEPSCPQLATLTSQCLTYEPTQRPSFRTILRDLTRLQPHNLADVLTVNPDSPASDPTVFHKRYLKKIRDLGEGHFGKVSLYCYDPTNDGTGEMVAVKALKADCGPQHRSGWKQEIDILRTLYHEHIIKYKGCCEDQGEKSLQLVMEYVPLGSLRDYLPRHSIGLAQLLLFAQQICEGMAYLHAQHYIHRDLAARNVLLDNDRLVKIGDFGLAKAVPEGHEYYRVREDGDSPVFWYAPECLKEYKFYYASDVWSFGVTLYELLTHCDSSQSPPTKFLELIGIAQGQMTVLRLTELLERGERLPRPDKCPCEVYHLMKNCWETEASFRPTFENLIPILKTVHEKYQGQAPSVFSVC
# T2 sequence (O60674 whole entry): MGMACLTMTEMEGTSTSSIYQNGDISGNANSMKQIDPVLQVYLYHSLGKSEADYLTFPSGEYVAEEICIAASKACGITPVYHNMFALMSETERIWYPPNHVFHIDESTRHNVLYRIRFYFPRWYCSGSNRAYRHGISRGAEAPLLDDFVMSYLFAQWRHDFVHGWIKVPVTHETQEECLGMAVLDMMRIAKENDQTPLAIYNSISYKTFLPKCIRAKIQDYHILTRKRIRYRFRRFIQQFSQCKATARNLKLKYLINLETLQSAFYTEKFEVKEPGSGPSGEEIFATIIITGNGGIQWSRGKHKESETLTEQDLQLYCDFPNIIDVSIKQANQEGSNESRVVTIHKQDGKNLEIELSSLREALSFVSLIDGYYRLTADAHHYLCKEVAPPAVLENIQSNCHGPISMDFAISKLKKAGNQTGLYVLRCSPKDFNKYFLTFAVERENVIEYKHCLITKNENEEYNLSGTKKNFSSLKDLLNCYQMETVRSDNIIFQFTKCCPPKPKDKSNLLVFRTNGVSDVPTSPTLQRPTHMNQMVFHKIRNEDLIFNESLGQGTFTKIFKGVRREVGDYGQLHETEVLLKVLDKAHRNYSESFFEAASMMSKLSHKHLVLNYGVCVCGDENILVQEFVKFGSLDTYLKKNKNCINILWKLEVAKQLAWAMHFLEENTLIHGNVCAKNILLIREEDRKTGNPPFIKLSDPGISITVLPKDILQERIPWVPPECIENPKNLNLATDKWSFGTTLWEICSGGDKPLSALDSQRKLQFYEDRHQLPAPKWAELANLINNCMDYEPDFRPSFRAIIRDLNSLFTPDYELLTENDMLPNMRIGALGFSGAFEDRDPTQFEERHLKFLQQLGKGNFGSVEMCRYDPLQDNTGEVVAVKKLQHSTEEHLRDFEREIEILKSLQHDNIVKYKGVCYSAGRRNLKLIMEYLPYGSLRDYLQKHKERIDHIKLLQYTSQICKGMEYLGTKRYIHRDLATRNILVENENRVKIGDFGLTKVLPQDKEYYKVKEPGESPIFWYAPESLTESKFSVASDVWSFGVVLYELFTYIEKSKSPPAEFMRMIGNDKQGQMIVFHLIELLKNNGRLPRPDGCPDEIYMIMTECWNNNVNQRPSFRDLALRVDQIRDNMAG
IC50 [1] [nM],IC50 [2] [nM],SMILES
100 to 1000,1000 to 10000,C[C@@H](C(N)=O)n1cc(Nc2ncc(Cl)c(NCc3ccccc3)n2)cn1 [Example I-291]
100 to 1000,100 to 1000,CC(C)(O)Cn1cc(Nc2ncc(Cl)c(NCc3cc(F)ccc3F)n2)cn1 [Example I-292]
100 to 1000,100 to 1000,OCCn1cc(Nc2ncc(Cl)c(NCc3cccc(C(F)F)c3)n2)cn1 [Example I-293]
100 to 1000,1000 to 10000,CCOc1cccc(CNc2nc(Nc3cnn(CCO)c3)ncc2Cl)c1 [Example I-294]
10 to 100,1000 to 10000,COc1ccc(F)c(CNc2nc(Nc3cnn(CC(=O)O)c3)ncc2Cl)c1F [Example I-295]
10 to 100,1000 to 10000,Cc1cnc(Nc2cnn(CC(=O)N3CCOCC3)c2)nc1NCc1ccccc1 [Example I-296]
≤ 10,100 to 1000,Cc1cnc(Nc2cnn(CCO)c2)nc1NCc1c(F)cccc1F [Example I-298]
≤ 10,100 to 1000,Cc1cnc(Nc2cnn(CC(=O)N(C)C)c2)nc1NCc1c(F)cccc1F [Example I-299]
100 to 1000,1000 to 10000,Cc1cnc(Nc2cnn(CC(=O)N(C)C)c2)nc1NCc1ccccc1 [Example I-300]
10 to 100,1000 to 10000,Cc1cnc(Nc2cnn(C)c2)nc1NCc1c(F)cc(F)cc1F [Example I-301]
10 to 100,100 to 1000,COc1ccc(F)c(CNc2nc(Nc3cnn(C)c3)ncc2C)c1F [Example I-302]
10 to 100,100 to 1000,Cc1cnc(Nc2cnn(CCO)c2)nc1NCc1c(F)cc(F)cc1F [Example I-303]
≤ 10,10 to 100,COc1ccc(F)c(CNc2nc(Nc3cnn(CCO)c3)ncc2C)c1F [Example I-304]
≤ 10,100 to 1000,Cc1cnc(Nc2cnn(CC(=O)N3CCOCC3)c2)nc1NCc1c(F)cccc1F [Example I-305]
10 to 100,1000 to 10000,Cc1cnc(Nc2cnn(CC(=O)O)c2)nc1NCc1c(F)cc(F)cc1F [Example I-306]
10 to 100,> 10000,O=C(O)Cn1cc(Nc2ncc(F)c(NCc3c(F)cc(F)cc3F)n2)cn1 [Example I-307]
10 to 100,> 10000,O=C(Cn1cc(Nc2ncc(F)c(NCc3c(F)cc(F)cc3F)n2)cn1)NC1CCC1 [Example I-308]
10 to 100,1000 to 10000,CC1(C)COCCN1C(=O)Cn1cc(Nc2ncc(F)c(NCc3c(F)cc(F)cc3F)n2)cn1 [Example I-309]
100 to 1000,> 10000,Cn1cc(Nc2nccc(NCc3c(F)cc(F)cc3F)n2)cn1 [Example I-310]
10 to 100,1000 to 10000,NC(=O)Cn1cc(Nc2nccc(NCc3c(F)cc(F)cc3F)n2)cn1 [Example I-311]
100 to 1000,> 10000,Cn1cc(Nc2nccc(NCc3c(F)cccc3F)n2)cn1 [Example I-312]
10 to 100,1000 to 10000,NC(=O)Cn1cc(Nc2nccc(NCc3c(F)cccc3F)n2)cn1 [Example I-313]
10 to 100,1000 to 10000,COc1cc(F)c(CNc2nc(Nc3cnn(C)c3)ncc2C)c(F)c1 [Example I-314]
10 to 100,1000 to 10000,COc1cc(F)c(CNc2nc(Nc3cnn(CC(N)=O)c3)ncc2C)c(F)c1 [Example I-315]
10 to 100,> 10000,CC(C)N(C)C(=O)Cn1cc(Nc2nccc(NCc3c(F)cc(F)cc3F)n2)cn1 [Example I-317]
10 to 100,1000 to 10000,COc1ccc(F)c(CNc2nc(Nc3cnn(C)c3)ncc2Cl)c1F [Example I-319]

IC50 [1] [nM],IC50 [2] [nM],SMILES
10 to 100,100 to 1000,COc1ccc(F)c(CNc2nc(Nc3cnn(CCO)c3)ncc2Cl)c1F [Example I-320]
100 to 1000,1000 to 10000,COc1ccccc1CNc1nc(Nc2cnn(CC(N)=O)c2)ncc1Cl [Example I-321]
10 to 100,1000 to 10000,OCCn1cc(Nc2ncc(Cl)c(NCc3cccc(OC(F)F)c3)n2)cn1 [Example I-322]
10 to 100,100 to 1000,OCCn1cc(Nc2ncc(Cl)c(NCc3c(Cl)cccc3Cl)n2)cn1 [Example I-323]
10 to 100,100 to 1000,NC(=O)Cn1cc(Nc2ncc(Cl)c(NCc3c(Cl)cccc3Cl)n2)cn1 [Example I-324]
10 to 100,1000 to 10000,CNC(=O)Cn1cc(Nc2ncc(Cl)c(NCc3c(Cl)cccc3Cl)n2)cn1 [Example I-325]
10 to 100,100 to 1000,CN(C)C(=O)Cn1cc(Nc2ncc(Cl)c(NCc3c(Cl)cccc3Cl)n2)cn1 [Example I-326]
10 to 100,1000 to 10000,NC(=O)Cn1cc(Nc2ncc(F)c(NCc3c(Cl)cccc3Cl)n2)cn1 [Example I-328]
10 to 100,1000 to 10000,CNC(=O)Cn1cc(Nc2ncc(F)c(NCc3c(Cl)cccc3Cl)n2)cn1 [Example I-329]
100 to 1000,1000 to 10000,Cc1cnc(Nc2cnn(CC(=O)N(C)C)c2)nc1NCc1cc(F)cc(C(F)(F)F)c1 [Example I-330]
100 to 1000,1000 to 10000,CN(C)C(=O)Cn1cc(Nc2ncc(F)c(NCc3cc(F)cc(C(F)(F)F)c3)n2)cn1 [Example I-331]
100 to 1000,1000 to 10000,O=C(Cn1cc(Nc2ncc(F)c(NCc3cc(F)cc(C(F)(F)F)c3)n2)cn1)N1CCOCC1 [Example I-332]
100 to 1000,1000 to 10000,OCCn1cc(Nc2ncc(Cl)c(NCc3cccc(F)c3C(F)(F)F)n2)cn1 [Example I-333]
100 to 1000,1000 to 10000,CC(C)Oc1cccc(CNc2nc(Nc3cnn(CCO)c3)ncc2Cl)c1 [Example I-334]
≤ 10,100 to 1000,O=C(Cn1cc(Nc2ncc(Cl)c(NCc3c(F)ccc(F)c3F)n2)cn1)NC1CC1 [Example I-335]
10 to 100,100 to 1000,Fc1ccc(F)c(CNc2nc(Nc3cnn(CC(F)F)c3)ncc2Cl)c1F [Example I-336]
100 to 1000,1000 to 10000,O=C(Cn1cc(Nc2ncc(Cl)c(NCc3cccnc3)n2)cn1)N1CCOCC1 [Example I-337]
100 to 1000,1000 to 10000,O=C(Cn1cc(Nc2ncc(Cl)c(NCc3ccccn3)n2)cn1)N1CCOCC1 [Example I-338]
10 to 100,100 to 1000,O=C(Cn1cc(Nc2ncc(Cl)c(NCc3cncc(F)c3)n2)cn1)N1CCOCC1 [Example I-339]
10 to 100,100 to 1000,Cn1cc(Nc2ncc(Cl)c(NCc3c(F)ccc(F)c3F)n2)cn1 [Example I-340]
10 to 100,1000 to 10000,Cc1cnc(Nc2cnn(CC(=O)NC3CC3)c2)nc1NCc1cccc(F)c1F [Example I-341]
10 to 100,10 to 100,Cc1cnc(Nc2cnn(C)c2)nc1NCc1cc(F)cc(F)c1F [Example I-342]
10 to 100,10 to 100,Cc1cnc(Nc2cnn(C)c2)nc1NCc1cc(F)cc(F)c1 [Example I-343]
10 to 100,100 to 1000,Cc1cnc(Nc2cnn(CC(=O)NC3CC3)c2)nc1NCc1cc(F)cc(F)c1 [Example I-344]
10 to 100,100 to 1000,COc1c(F)cc(F)cc1CNc1nc(Nc2cnn(CC(=O)NC3CC3)c2)ncc1C [Example I-345]
10 to 100,100 to 1000,Cc1cnc(Nc2cnn(CC(=O)NC3CC3)c2)nc1NCc1cc(F)ccc1F [Example I-346]
